Experimental data: US20090227555A2, “Novel Pyridine Compounds” (priority 2005, published 2009)
Like-named read-outs stand apart in the source and are kept apart here.

Target: T1, P2Y12 receptor (Homo sapiens, UniProt Q9H244)
T1 construct: expressed in transfected cells; host or cells: CHO cells (membrane preparation)
Test: Functional inhibition of 2-Me-S-ADP induced P2Y12 signalling (35S-GTPγS, cell membranes from P2Y12 transfected CHO-cells)
Type: biochemical
Description: Functional inhibition of—the P2Y12 receptor can be measured by in vitro assays using cell membranes from P2Y12 transfected CHO-cells. Inhibition of platelet aggregation as a result of P2Y12 antagonism is best measured by ADP-induced aggregation of washed human platelets, activation of the platelet fibrinogen receptor (GPIIb/IIIa), or aggregation in whole blood via residual platelet counting. Detailed methodology is indicated below.
Functional inhibition of 2-Me-S-ADP induced P2Y12 signalling: 5 μg of membranes were diluted in 200 μl of 200 mM NaCl, 1 mM MgCl2, 50 mM HEPES (pH 7.4), 0.01% BSA, 30 μg/ml saponin and 10 μM GDP. To this was added an EC80 concentration of agonist (2-methyl-thio-adenosine diphosphate), the required concentration of test compound and 0.1 μCi ^35S-GTPγS. The reaction was allowed to proceed at 30° C. for 45 min. Samples were then transferred on to GF/B filters using a cell harvester and washed with wash buffer (50 mM Tris (pH 7.4), 5 mM MgCl2, 50 mM NaCl). Filters were then covered with scintilant and counted for the amount of ^35S-GTPγS retained by the filter. Maximum activity was that determined in the presence of the agonist and minimum activity in the absence of the agonist following subtraction of the value determined for non-specific activity.

T1 sequence (Q9H244 whole entry): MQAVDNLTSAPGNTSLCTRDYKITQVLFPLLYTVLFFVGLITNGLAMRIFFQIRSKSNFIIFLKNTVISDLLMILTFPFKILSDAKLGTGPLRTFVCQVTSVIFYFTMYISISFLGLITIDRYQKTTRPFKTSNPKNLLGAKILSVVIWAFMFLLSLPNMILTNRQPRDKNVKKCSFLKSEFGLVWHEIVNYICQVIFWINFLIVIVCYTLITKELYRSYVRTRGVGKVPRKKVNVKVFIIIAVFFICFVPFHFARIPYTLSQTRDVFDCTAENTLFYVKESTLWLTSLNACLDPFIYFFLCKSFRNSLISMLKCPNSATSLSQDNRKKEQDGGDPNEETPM

Row | SMILES | IC50 [nM] | IC50 (5 μg membranes, EC80 concentration of agonist 2-methyl-thio-adenosine diphosphate, 35S-GTPγS, 30° C., 45 min, read-out: IC50) [nM]
1 | CC(C)OC(=O)c1cnc(N2CCN(C(=O)NS(=O)(=O)c3ccc(Cl)s3)CC2)c(Cl)c1 [Example 18, Isopropyl 5-chloro-6-[4-({[(5-chloro-2-thienyl)sulfonyl]amino}carbonyl)piperazin-1-yl]nicotinate] | 520 | –
2 | CCOC(=O)c1cnc(N2CCN(C(=O)NS(=O)(=O)c3ccccc3)CC2)c(Cl)c1 [Example 10, Ethyl 5-chloro-6-(4-{[(phenylsulfonyl)amino]carbonyl}piperazin-1-yl)nicotinate] | – | 610
